“Also recorded” adds a separate entry of the source. Bridges are numbered along the chain shown (N, C = ends).
Experiments:
LPS-stimulated cells = conditions: cited from earlier work
Human PBMCs = test: TNFα release from LPS-stimulated PBMCs; type: cell-based; conditions: LPS 10 μg/ml, RTD-1 0.1-10 μg/ml, supernatants after 3 days
Method: Human PBMCs were prepared by the dextran sedimentation method and resuspended in Iscove's Modified Dulbecco's Medium containing 10% fetal bovine serum. […] Under conditions shown in A-C, aliquots containing 0.5−1×10^6 PBMCs were incubated with 10 μg/ml lipopolysaccharide (LPS) for 2 hours at 37° C., 5% CO2, then treated with RTD-1 (A: 10 μg/ml, B: 1 μg/ml, C, 0.1 μg/ml). Under conditions shown in D-E, a mixture of LPS (10 μg/ml) and RTD-1 (D: 10 μg/ml, E: 1 μg/ml, F: 0.1 μg/ml) were incubated for 2 hours at 37° C. then added to PBMC. Under conditions shown in G-L, control incubations were performed in which PBMCs were incubated with either 10 μg/ml LPS (G), 1 μg/ml phorbol 12-myristate 13-acetate (PMA) (H), varying concentrations of RTD-1 (1:10 μg/ml, J:1 μg/ml, K:0.1 μg/ml), or in media (L). Supernatants from these incubations were harvested after 3 days and soluble TNF was measured using Human TNF ELISA Kit II (BD Biosciences, San Diego). Results were obtained from duplicate incubations.

[1] = test system: S. aureus and E. coli ML35; test: Antimicrobial activities in physiological salts and serum; type: cell-based; conditions: NaCl, CaCl2, MgCl2; 10% human serum
Method: (§1) The microbicidal activities of various theta defensin peptides were determined by incubating 2×10^6 CFU/ml with peptides (0-100 μg/ml) in 50 μl of low salt diluents: 10 mM PIPES buffer containing 5 mM glucose, pH 7.4, 10 mM Tris-HCl, pH 7.4, or 10 mM sodium phosphate, pH 7.4, or the same diluents supplemented with 25 to 154 mM NaCl. After 2 h incubation at 37° C., the cell suspensions were diluted 1:50 with 10 mM sodium phosphate buffer, pH 7.4, and exponentially spread with an Autoplate 400 (Spiral Biotech, MD) onto trypticase soy agar (bacteria) or Sabouraud dextrose agar (fungi). After incubation at 37° C. for 18-48 h, colonies were counted and cell survival was expressed as CFU/ml.
(§2) Staphylocidal activities of theta defensins and protegrin were assayed in various buffers and salt concentrations. Log-phase bacteria were incubated for 2 h at 37° C. with increasing concentrations of the peptides (FIG. 9). Cells were incubated with increasing concentrations of RTD-1 (filled circles), RTD-2 (filled triangles), RTD-3 (filled squares), and PG-1 (filled diamonds) in 10 mM PIPES (FIG. 9A), 10 mM Tris-Cl (FIG. 9B), or 10 mM sodium phosphate (FIG. 9C), at pH 7.4, containing 154 mM NaCl.
The bactericidal activities of theta defensins against E. coli in various physiological salt concentrations were also tested. […] Killing of E. coli ML35 was measured by incubating increasing concentrations of RTD-1 (filled circles), RTD-2 (filled triangles), RTD-3 (filled squares), and PG-1 (filled diamonds) with log-phase E. coli ML35 in 10 mM PIPES, pH 7.4, with CaCl2 (1.2 mM) (FIG. 10A), MgCl2 (0.8 mM) (FIG. 10B), or in control incubations where the divalent salts were omitted (FIG. 10C).
The activities of theta defensins in the presence of serum were also analyzed. […] Dose-dependent bactericidal activities of RTD-1 (filled circles), RTD-2 (filled triangles), RTD-3 (filled squares), and PG-1 (filled diamonds) against bacteria were determined in 10 mM PIPES, pH 7.4, containing 10% normal (for S. aureus) or heat-inactivated (for E. coli) human serum.

[2] = test system: Escherichia coli ML35, Staphylococcus aureus 502A, Candida albicans, Cryptococcus neoformans; test: Microbicidal and agar diffusion assays in low salt diluents; type: cell-based, bacteria and fungi; conditions: low salt conditions, absence of physiologic salt
Method: The antimicrobial activities of various theta defensin compounds were measured using a diffusion assay against bacteria (Staphylococcus aureus 502a and Escherichia coli ML35) and fungi (Candida albicans 16820 and Cryptococcus neoformans 271A). The antimicrobial activities were determined in an agar diffusion assay as described previously (Osapay et al., J. Biol. Chem. 275:12017-12022 (2000)). Briefly, 10-μl wells were bored in a 9-cm^2 plate of agarose, buffered with 10 mM 1,4-piperazine-bis(ethanesulfonic acid) (PIPES), pH 7.4, containing 5 mM glucose, and seeded with 1×10^6 mid-log phase cells. Five-μl aliquots of each peptide, dissolved in 0.01% acetic acid (HOAc) at 10-300 μg/ml, were added to each well. After incubation at 37° C. for 2 h, the seeded agar was overlaid with molten agarose containing 6% trypticase soy broth (for bacteria) or Sabouraud dextrose broth (for fungi). Plates were incubated at 37° C. for 18-24 h, and antimicrobial activity was determined by measuring the diameter of clearing around each well.
as §1
FIGS. 2-4 show the results of microbicidal assays performed with various theta defensins and protegrin. Cells were incubated for 2 hours at 37° C. in 10 mM PIPES, pH 7.4, and 5 mM glucose, as described above.
FIGS. 5-8 show antimicrobial activities of various theta defensins as measured using the diffusion assay. […]

[3] = test system: various theta defensin peptides
Staphylococcus aureus = test: Staphylocidal activity in buffers containing physiologic NaCl; type: cell-based; conditions: 154 mM NaCl, pH 7.4, 2 h at 37° C.
Method: as §1, §2

[4] = test system: primary R5 strain of HIV-1; test: Anti-HIV activity in PHA-stimulated PBMCs (p24 ELISA); type: cell-based; conditions: day 7 of infection
Method: Phytohaemagglutinin (PHA)-stimulated peripheral blood mononuclear cells (PBMCs), pre-incubated for 3 hours with serial dilutions of defensins, were mixed with 1000 TCID50 (50% infectivity of susceptible cells in tissue culture) of a primary R5 strain of HIV-1. Two hours later, the cells were washed, and fresh medium containing defensin and 20 U/ml of IL-2 was added. Five days after infection, 50% of the medium was removed and replaced with fresh medium containing defensin and IL-2. On day 7 of infection, the levels of HIV protein p24 in supernatant fluid were measured by ELISA. […] The active β-defensin was human β-defensin-3.

Substance	activity in the presence of physiological salts and serum [1]	antimicrobial activity in vitro [2]	antimicrobial activity in the presence of salt compared to RTD-1 (Staphylococcus aureus)	other results
Gly-Phe-Cys-Arg-Cys-Leu-Cys-Arg-Arg-Gly-Val-Cys-Arg-Cys-Ile-Cys-Thr-Arg (cyclo(GFCRCLCRRGVCRCICTR); disulfide 7-12, 5-14, 3-16) [RTD-1, Rhesus theta defensin, macrocyclic 18-amino acid antimicrobial peptide, heterodimer of RTD1a and RTD1b nonapeptides]	active	nearly indistinguishable		levels of pro-inflammatory cytokines (TNF-α, IL-1β) (LPS-stimulated cells): Reduction; extracellular release of TNFα (Human PBMCs): modulates extracellular release of TNF-a
Purified β-galactosidase				β-Galactosidase activity measured as the rate of o-nitrophenyl-beta-D-galactopyranoside (ONPG) hydrolysis, compared to that obtained in the absence of peptide [3]: various theta defensins inhibited β-galactosidase enzymatic activity
RTD-2: naturally occurring theta defensin, homodimer of nine-residue sequences (SEQ ID NO:4, FIG. 1) (cyclo(GFCRCICTRGFCRCICTR); not fully specified (bridges); also: homodimer of nine-residue sequences, cyclic; listed as Macaca mulatta)	active	nearly indistinguishable	more potent antimicrobial activity; also recorded: higher antimicrobial activity than RTD-1	
RTD-3: naturally occurring theta defensin, homodimer of nine-residue sequences (SEQ ID NO:6, FIG. 1) (cyclo(GVCRCLCRRGVCRCLCRR); not fully specified (bridges); also: homodimer of nine-residue sequences, cyclic; listed as Macaca mulatta)	active	nearly indistinguishable	more potent antimicrobial activity; also recorded: higher antimicrobial activity than RTD-1	
human β-defensin-3: human β-defensin-3, the active β-defensin in the anti-HIV assay (GIINTLQKYYCRVRGGRCAVLSCLPKEEQIGKCSTRGRKCCRRKK; Beta-defensin 103; UniProt P81534 23-67, looked up)				anti-HIV activity (HIV protein p24 in supernatant) [4]: active

Source: patent US20080255052A1, “Immunologic regulation by theta defensins” (priority 2004, published 2008)
